Experimental findings from patent US10487046B1, “Dihydroxytyrosol hexamethylene-1,6-dicarbamate having antioxidant activity and a method of preparing the same” (SHAANXI UNIVERSITY OF SCIENCE AND TECHNOLOGY, priority 2019, dated 2019) are described below.

A short description of this experiment: DPPH Radical Scavenging Activity Assay. In kind it is biochemical. The note with it: for Scavenging Activity (%) (n = 3): DPPH 0.2×10^−4 mol/L in methanol, 30 minutes, 517 nm. The source says:
DPPH Radical Scavenging Activity Assay 2,2-Diphenyl-1-picryl hydrazyl (DPPH) is an organic compound composed of a stable organic radical. In the DPPH molecule, due to the presence of multiple electron-withdrawing —NO2 and large it bonds of the benzene ring, nitrogen free radical is stabilized. Its methanol solution is purple and has a maximum absorption peak at 517 nm. After the addition of an antioxidant, DPPH captures an electron to be paired with the free electron, and the purple fades and turns into a yellow substance. The absorption at 517 nm disappears, and the degree of fading is quantitatively related to the number of electrons it captures. Based on this principle, a spectrophotometer is used to detect the change of the absorbance of the DPPH radical and the sample solution, and the ability of the sample to provide hydrogen atoms and scavenge free radicals can be measured. (a) Preparation of DPPH solution: measuring exact amount of 2,2-diphenyl-1-picryl hydrazyl (DPPH) and dissolving in methanol to prepare a 0.2×10^−4 mol/L DPPH solution, stored at 0° C. in dark. (b) Preparation of sample solutions: Vc (vitamin C, positive control), dihydroxytyrosol hexamethylene-1,6-dicarbamate, and hydroxytyrosol (control) were dissolved in methanol and diluted in a concentration gradient. Measuring the scavenging activity of the sample solutions: 2 mL of the sample solutions (table 1) at each concentration gradient was taken, 2 mL 0.2×10^−4 mol/L DPPH solution was added, the mixture was mixed and reacted at room temperature in dark for 30 minutes, and methanol was then added to adjust final volume. The absorbance Ai was measured at 517 nm. 2 mL control solution and 2 mL methanol were mixed, and the absorbance Aj was measured. 2 mL DPPH solution and 2 mL methanol were mixed, and the absorbance Ao was measured. (d) The scavenging activity of the sample solution and control solutions is calculated according to the following calculation formula and shown in Table 3 and FIG. 3. Scavenging activity (%)=100×[1−(Ai−Aj)/Ao]
(DPPH is a stable violet radical that fades when it is reduced.)

Take `O=C(NCCCCCCNC(=O)OCCc1ccc(O)c(O)c1)OCCc1ccc(O)c(O)c1` [A, dihydroxytyrosol hexamethylene-1,6-dicarbamate]: the “Scavenging Activity (%) (n = 3)” value is, setting by setting: (1.76 ppm) 19.87%; (8.80 ppm) 23.68%; (21.12 ppm) 37.02%; (42.24 ppm) 68.43%; (79.20 ppm) 76.52%; (112.64 ppm) 86.33%. In addition, the “Scavenging Activity (%) (n = 3)” value was found to be 91.48% (281.60 ppm), 95.31% (492.80 ppm), 96.66% (792.00 ppm) and 97.14% (915.20 ppm). In addition, where the note is “1.76 to 915.20 ppm”, the “DPPH radical scavenging activity (in words)” value is recorded as “obvious DPPH radical scavenging activity in a concentration dependent manner”. Further, the “DPPH radical scavenging activity compared with hydroxytyrosol (B)” value (at same concentration) is “better DPPH radical scavenging activity than hydroxytyrosol (B)”.

Take `OCCc1ccc(O)c(O)c1` [B, hydroxytyrosol]: the “Scavenging Activity (%) (n = 3)” value (1.76 ppm) worked out at 8.69%; the “Scavenging Activity (%) (n = 3)” value (8.80 ppm) is 10.97%; the “Scavenging Activity (%) (n = 3)” value (21.12 ppm) is recorded as 18.10%; the “Scavenging Activity (%) (n = 3)” value (42.24 ppm) is recorded as 28.89%; the “Scavenging Activity (%) (n = 3)” value (79.20 ppm) is recorded as 41.44%; the “Scavenging Activity (%) (n = 3)” value (112.64 ppm) is 45.83%. The “Scavenging Activity (%) (n = 3)” value reads like this: (281.60 ppm) 60.58%; (492.80 ppm) 72.81%; (792.00 ppm) 76.35%; (915.20 ppm) 80.61%.

Turning to `O=C1O[C@H]([C@@H](O)CO)C(O)=C1O` [Vc, Vitamin C], the “Scavenging Activity (%) (n = 3)” value is on record as 21.35% (1.76 ppm); 30.80% (8.80 ppm); 87.03% (21.12 ppm); 95.44% (42.24 ppm); 96.06% (79.20 ppm); 97.88% (112.64 ppm). Moreover, the “Scavenging Activity (%) (n = 3)” value is, setting by setting: (281.60 ppm) 98.41%; (492.80 ppm) 99.04%; (792.00 ppm) 99.42%; (915.20 ppm) 99.16%.
